Values joined by “and” are separate entries in the source; they are usually repeats but may differ in a detail not shown here. Equal values may be shown once.
Columns and labels:
Experiment in all cases: normalised viability (% of control), CellTiter-Blue; higher = more viable cells (about 100 = DMSO control)
Conditions in all cases: incubation time: 72 h
[1] = system: DU-4475
Protocol: (§1)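 DSRT, CellTiter-Blue viability, 72 h incubation. Signal is normalised to DMSO and benzethonium chloride controls. Value is the normalised response at dose 8.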

[2] = system: HDQ-P1
Protocol: as §1

[3] = system: CAL-148
Protocol: as §1

[4] = system: CAL-85-1
Protocol: as §1

[5] = system: MDA-MB-453
Protocol: as §1

[6] = system: CAL-51
Protocol: as §1

[7] = system: DU-4475; remark: listed apart in the source
Protocol: (§2)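 DSRT, CellTiter-Blue viability, 72 h incubation. Signal is normalised to DMSO and benzethonium chloride controls. Value is the normalised response at dose 6.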

[8] = system: HDQ-P1; remark: listed apart in the source
Protocol: as §2

[9] = system: CAL-148; remark: listed apart in the source
Protocol: as §2

[10] = system: CAL-85-1; remark: listed apart in the source
Protocol: as §2

[11] = system: MDA-MB-453; remark: listed apart in the source
Protocol: as §2

[12] = system: CAL-51; remark: listed apart in the source
Protocol: as §2

Structure (SMILES)	normalised viability [1]	normalised viability [2]	normalised viability [3]	normalised viability [4]	normalised viability [5]	normalised viability [6]	normalised viability [7] [%]	normalised viability [8] [%]	normalised viability [9] [%]	normalised viability [10] [%]	normalised viability [11] [%]	normalised viability [12] [%]
Cc1cn(-c2cc(NC(=O)c3ccc(C)c(Nc4nccc(-c5cccnc5)n4)c3)cc(C(F)(F)F)c2)cn1 [Nilotinib] (3000 nM)	97.8% and 107%	67.9% and 66.5%	83.9% and 89.2%	69.3% and 78.6%	87.6% and 97.1%	108% and 115%	–	–	–	–	–	–
CC(O)(CS(=O)(=O)c1ccc(F)cc1)C(=O)Nc1ccc(C#N)c(C(F)(F)F)c1 (stereo not drawn) [Bicalutamide] (3000 nM)	103%	96.8%	103%	101%	114%	120%	–	–	–	–	–	–
C=CCn1c(=O)c2cnc(Nc3ccc(N4CCN(C)CC4)cc3)nc2n1-c1cccc(C(C)(C)O)n1 [MK1775] (3000 nM)	2.03%	27.3%	6.03%	19.2%	19.3%	7.19%	–	–	–	–	–	–
CO[C@@]12[C@H](COC(N)=O)C3=C(C(=O)C(C)=C(N)C3=O)N1C[C@@H]1N[C@@H]12 [Mitomycin C] (3000 nM)	91.5%	85.2%	48.5%	71.6%	58.8%	102%	–	–	–	–	–	–
CC(C)(C)NC(=O)[C@H]1CC[C@H]2[C@@H]3CC[C@H]4NC(=O)C=C[C@]4(C)[C@H]3CC[C@]12C [Finasteride] (3000 nM)	97%	127%	96.4%	92.2%	114%	104%	–	–	–	–	–	–
C/C(=C\c1csc(C)n1)[C@@H]1C[C@@H]2O[C@]2(C)CCC[C@H](C)[C@H](O)[C@@H](C)C(=O)C(C)(C)[C@@H](O)CC(=O)N1 [Ixabepilone] (300 nM)	92.9%	81.6%	87.3%	76.5%	89.8%	117%	–	–	–	–	–	–
CO[C@@H]1[C@H](N(C)C(=O)c2ccccc2)C[C@H]2O[C@]1(C)n1c3ccccc3c3c4c(c5c6ccccc6n2c5c31)C(=O)NC4 [Midostaurin] (3000 nM)	3.23%	50.5%	84.4%	73.4%	69.6%	6.39%	–	–	–	–	–	–
Nc1ccn([C@@H]2O[C@H](CO)[C@@H](O)C2(F)F)c(=O)n1 [Gemcitabine] (300 nM)	39.8%	82.1%	34.9%	43.2%	44.1%	15.7%	–	–	–	–	–	–
CC1(C)CCC(c2ccc(Cl)cc2)=C(CN2CCN(c3ccc(C(=O)NS(=O)(=O)c4ccc(N[C@H](CCN5CCOCC5)CSc5ccccc5)c(S(=O)(=O)C(F)(F)F)c4)cc3)CC2)C1 [Navitoclax] (3000 nM)	20.1%	43.5%	71%	87.8%	70.3%	95.3%	–	–	–	–	–	–
CCNC(=O)c1noc(-c2cc(C(C)C)c(O)cc2O)c1-c1ccc(CN2CCOCC2)cc1 [NVP-AUY922] (300 nM)	0.62%	30.4%	16.3%	24.6%	8.88%	8.64%	–	–	–	–	–	–
C=CCN(/C=C1/C(=O)O[C@H](COC)[C@@]2(C)C1=C(O)C(=O)C1=C2[C@H](OC(C)=O)C[C@]2(C)C(=O)CC[C@@H]12)CC=C [PX-866] (3000 nM)	95.4%	70.2%	108%	102%	114%	107%	–	–	–	–	–	–
CC(C)C[C@H](NC(=O)[C@@H](COC(C)(C)C)NC(=O)[C@H](Cc1ccc(O)cc1)NC(=O)[C@H](CO)NC(=O)[C@H](Cc1c[nH]c2ccccc12)NC(=O)[C@H](Cc1cnc[nH]1)NC(=O)[C@@H]1CCC(=O)N1)C(=O)N[C@@H](CCCNC(=N)N)C(=O)N1CCC[C@H]1C(=O)NNC(N)=O [Goserelin] (3000 nM)	92.5%	106%	99.8%	103%	122%	108%	–	–	–	–	–	–
CCN(CC)CCCC(C)Nc1ccnc2cc(Cl)ccc12 (stereo not drawn) [Chloroquine] (297 nM)	85.2%	118%	95.9%	96%	100%	93.4%	–	–	–	–	–	–
CC1(C)CCC(c2ccc(Cl)cc2)=C(CN2CCN(c3ccc(C(=O)NS(=O)(=O)c4ccc(N[C@H](CCN5CCOCC5)CSc5ccccc5)c(S(=O)(=O)C(F)(F)F)c4)cc3)CC2)C1 [Navitoclax] (300 nM)	–	–	–	–	–	–	47.2	50.2	90.4	75.2	78.1	99.9
Cn1cc(C2=C(c3cn(C4CCN(Cc5ccccn5)CC4)c4ccccc34)C(=O)NC2=O)c2ccccc21 [Enzastaurin] (300 nM)	–	–	–	–	–	–	77.5	45.9	79.2	90.2	80.6	92.3
C=CCn1c(=O)c2cnc(Nc3ccc(N4CCN(C)CC4)cc3)nc2n1-c1cccc(C(C)(C)O)n1 [MK1775] (300 nM)	–	–	–	–	–	–	68.7	49.3	45.3	66.6	60	62.9
CC(=O)[C@]1(O)Cc2c(O)c3c(c(O)c2[C@@H](O[C@H]2C[C@H](N)[C@H](O)[C@H](C)O2)C1)C(=O)c1ccccc1C3=O [Idarubicin] (300 nM)	7.47%	48.7%	7.71%	47.1%	68.7%	20.9%	–	–	–	–	–	–
CNC(=O)c1ccccc1Sc1ccc2c(/C=C/c3ccccn3)n[nH]c2c1 [Axitinib] (300 nM)	–	–	–	–	–	–	103	40.1	94	83.6	96.8	96.1
CN(Cc1cnc2nc(N)nc(N)c2n1)c1ccc(C(=O)N[C@@H](CCC(=O)O)C(=O)O)cc1 [Methotrexate] (3000 nM)	101%	82.7%	56.3%	57.7%	91.4%	39.6%	–	–	–	–	–	–

Structure (SMILES)	normalised viability [1]	normalised viability [2]	normalised viability [3]	normalised viability [4]	normalised viability [5]	normalised viability [6]	normalised viability [7] [%]	normalised viability [8] [%]	normalised viability [9] [%]	normalised viability [10] [%]	normalised viability [11] [%]	normalised viability [12] [%]
CCNC(=O)CCC/C=C\C[C@@H]1[C@@H](/C=C/[C@@H](O)CCc2ccccc2)[C@H](O)C[C@@H]1O [Bimatoprost] (1650 nM)	120%	97.4%	91.1%	102%	92.4%	111%	–	–	–	–	–	–
CC[C@H](CO)Nc1nc(NCc2ccccc2)c2ncn(C(C)C)c2n1 [Roscovitine] (3000 nM)	114%	91%	80.4%	82.6%	86.5%	107%	–	–	–	–	–	–
CNC(=O)c1ccccc1Sc1ccc2c(/C=C/c3ccccn3)n[nH]c2c1 [Axitinib] (3000 nM)	33.9%	64.8%	46%	65.5%	55.4%	40.2%	–	–	–	–	–	–
C=CCN(/C=C1/C(=O)O[C@H](COC)[C@@]2(C)C1=C(O)C(=O)C1=C2[C@H](OC(C)=O)C[C@]2(C)C(=O)CC[C@@H]12)CC=C [PX-866] (300 nM)	–	–	–	–	–	–	93	75.8	116	103	112	110
Cn1cc(C2=C(c3cn(C4CCN(Cc5ccccn5)CC4)c4ccccc34)C(=O)NC2=O)c2ccccc21 [Enzastaurin] (3000 nM)	87.3%	89.8%	69%	85%	53.6%	88.6%	–	–	–	–	–	–
Nc1ccn([C@@H]2O[C@H](CO)[C@@H](O)C2(F)F)c(=O)n1 [Gemcitabine] (30 nM)	–	–	–	–	–	–	72.8	74	42.1	58.7	60.2	42.9
Cc1cc(Nc2nc(N[C@@H](C)c3ncc(F)cn3)ncc2Cl)[nH]n1 [AZD1480] (30 nM)	–	–	–	–	–	–	109	78.1	103	91.3	117	113
CC(C)C[C@H](NC(=O)[C@@H](COC(C)(C)C)NC(=O)[C@H](Cc1ccc(O)cc1)NC(=O)[C@H](CO)NC(=O)[C@H](Cc1c[nH]c2ccccc12)NC(=O)[C@H](Cc1cnc[nH]1)NC(=O)[C@@H]1CCC(=O)N1)C(=O)N[C@@H](CCCNC(=N)N)C(=O)N1CCC[C@H]1C(=O)NNC(N)=O [Goserelin] (300 nM)	–	–	–	–	–	–	106	91.4	104	99.7	106	108
CC(C)(C)NC(=O)[C@H]1CC[C@H]2[C@@H]3CC[C@H]4NC(=O)C=C[C@]4(C)[C@H]3CC[C@]12C [Finasteride] (300 nM)	–	–	–	–	–	–	96.4	109	106	97.8	112	105
CCNC(=O)c1noc(-c2cc(C(C)C)c(O)cc2O)c1-c1ccc(CN2CCOCC2)cc1 [NVP-AUY922] (30 nM)	–	–	–	–	–	–	0.85	18	16	30.5	9.09	29.4
COc1cc(Nc2c(C#N)cnc3cc(OCCCN4CCN(C)CC4)c(OC)cc23)c(Cl)cc1Cl [Bosutinib] (3000 nM)	98.6%	44.2%	39.8%	54.3%	50.1%	80.3%	–	–	–	–	–	–
CO[C@@]12[C@H](COC(N)=O)C3=C(C(=O)C(C)=C(N)C3=O)N1C[C@@H]1N[C@@H]12 [Mitomycin C] (300 nM)	–	–	–	–	–	–	86	83.7	105	98.7	110	102
C/C(=C\c1csc(C)n1)[C@@H]1C[C@@H]2O[C@]2(C)CCC[C@H](C)[C@H](O)[C@@H](C)C(=O)C(C)(C)[C@@H](O)CC(=O)N1 [Ixabepilone] (30 nM)	–	–	–	–	–	–	88.9	71.6	99.2	85	102	103
CN(Cc1cnc2nc(N)nc(N)c2n1)c1ccc(C(=O)N[C@@H](CCC(=O)O)C(=O)O)cc1 [Methotrexate] (300 nM)	–	–	–	–	–	–	110	69	66.8	68.7	95.2	48.6
COc1ccc(S(=O)(=O)Nc2cccnc2Nc2ccc(O)cc2)cc1 [ABT-751] (3000 nM)	17.4%	37.8%	15%	26.8%	27.7%	19%	–	–	–	–	–	–
COc1cc(Nc2c(C#N)cnc3cc(OCCCN4CCN(C)CC4)c(OC)cc23)c(Cl)cc1Cl [Bosutinib] (300 nM)	–	–	–	–	–	–	99.7	68.5	82.2	108	88.2	117
CCN(CC)CCCC(C)Nc1ccnc2cc(Cl)ccc12 (stereo not drawn) [Chloroquine] (29.7 nM)	–	–	–	–	–	–	116	123	89.9	92.7	98.8	88.5
CCNC(=O)CCC/C=C\C[C@@H]1[C@@H](/C=C/[C@@H](O)CCc2ccccc2)[C@H](O)C[C@@H]1O [Bimatoprost] (165 nM)	–	–	–	–	–	–	97.6	81.4	94.6	96.4	102	116
COc1ccc(S(=O)(=O)Nc2cccnc2Nc2ccc(O)cc2)cc1 [ABT-751] (300 nM)	–	–	–	–	–	–	80.7	55.8	98.6	58.7	39.5	94.3
